Reference: patent US20120302490A1, “Bleach Catalyst Compounds, Method For The Production Thereof And Use Thereof” (CLARIANT FINANCE (BVI) LIMITED, priority 2009, published 2012)

Assay: Water absorption (hygroscopicity) of the solid upon storage
Assay type: physicochemical
Procedure: Tri-μ-oxobis[(1,4,7-trimethyl-1,4,7-triazacyclononane)manganese(IV)]dichloride is prepared analogously to comparative example 1 and isolated in pure form as a red-brown powder. 4.7 g (8 mmol) thereof are dissolved in 50 ml of water and admixed with 3.1 g (16 mmol) of toluene-4-sulfonic acid sodium salt (Merck). After-stirring is carried out for 1 hour at room temperature, followed by evaporation to dryness on a rotary evaporator.
Analogously to comparative example 1, an aqueous solution of 0.2 mol of tri-μ-oxobis[(1,4,7-trimethyl-1,4,7-triazacyclononane)manganese(IV)]dichloride in water is prepared and freed from manganese oxides/hydroxides. The salts contained as a result of the reaction (sodium chloride) remain in the solution. At 25° C., 0.4 mol (77.6 g) of solid toluene-4-sulfonic acid sodium salt (Merck) is added and the mixture is after-stirred for 30 minutes. The clear dark red solution is then evaporated to dryness. Drying in a vacuum drying cabinet gives a crystalline red-violet solid in 92.7% yield, a mixture of tri-μ-oxobis[(1,4,7-trimethyl-1,4,7-triaza-cyclononane)manganese(IV)]dichloride, sodium toluenesulfonate and sodium chloride.
The procedure is in accordance with example 2 but adding sodium cumenesulfonate instead of the sodium toluene-4-sulfonate (equimolar exchange of sodium toluene-4-sulfonate for sodium cumenesulfonate). Evaporation at 50° C. gives a red-brown solid which, after 5 days, absorbs 7.1% by weight of water and in so doing becomes lumpy.
4.4 g (7.5 mmol) of isolated tri-μ-oxobis[(1,4,7-trimethyl-1,4,7-triazacyclo-nonane)manganese(IV)]dichloride according to comparative example 1 are dissolved in 50 ml of water, and 4.3 g (15 mmol) of sodium dodecylsulfate are added. The mixture is after-stirred for 1 hour at room temperature and then evaporated to dryness on a rotary evaporator. This gives 8.7 g of crystalline red solid which, after storage for 5 days at room temperature, absorbs 8.7% by weight of water and in so doing becomes lumpy.

SMILES: CN1CCN(C)CCN(C)CC1.CN1CCN(C)CCN(C)CC1.[Cl-].[Cl-].[O]1[Mn+]2[O][Mn+]1[O]2 [compound 1, tri-μ-oxobis[(1,4,7-trimethyl-1,4,7-triazacyclononane)-manganese(IV)]dichloride]
- hygroscopicity of isolated powder (as isolated, red-brown powder): strongly hygroscopic
- physical state after storage (open dish, room temperature, 24 hours): becomes liquid
- water absorbed upon storage (open dish, room temperature, over the course of 24 hours): > 17 % by weight
